Assay results: US20180230143A1, “INHIBITORS OF NHR2 AND/OR RUNX1/ETO-TETRAMERIZATION” (Heinrich-Heine-Universität Düsseldorf, priority 2013, published 2018)

Tests used:
RUNX1-BCR protein [1] = target: T1, RUNX1-BCR protein (Homo sapiens, UniProt P11274+Q01196); assay: ABCD (avidin, biotin, complex, DNA) assay with RUNX1-BCR protein; type: biochemical
T1 construct: replacing the NHR2 domain of the construct with the homologous BCR tetramerization domain (RUNX1-BCR protein); His6 (C); made in house; host or cells: E. coli BL21(DE3)
T1 sequence (Q01196+P11274 fused): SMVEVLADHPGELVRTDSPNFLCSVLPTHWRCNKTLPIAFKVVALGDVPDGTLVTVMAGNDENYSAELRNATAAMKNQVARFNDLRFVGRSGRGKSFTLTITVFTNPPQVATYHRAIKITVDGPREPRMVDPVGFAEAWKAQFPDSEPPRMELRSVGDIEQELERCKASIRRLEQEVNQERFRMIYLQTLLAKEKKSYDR
Method: (§1) Oligonucleotides were annealed to the corresponding unmodified antisense oligonucleotide to generate the RUNX1 binding site. Purified RUNX1 proteins were pre-incubated with a compound for 1 h at 4° C. Similarly the biotinylated double-stranded oligonucleotides were pre-incubated with streptavidin coated magnetic beads (Dynabeads M-280 Streptavidin, Invitrogen) for 1 h at 4° C. Protein/compound samples and beads with bound oligonucleotide were incubated in binding buffer (25 mM HEPES, pH 7.5, 50 mM KCl, 1 mM EDTA, pH 8.0, 10 mM MgCl2, 5% glycerol, 1 mM DTT) in the presence of 2% IGEPAL CA-630, 1 μg of salmon sperm, and 0.1% BSA for […]. After washing three times, the bound proteins were eluted from beads in SDS-PAGE sample buffer and resolved on SDS-PAGE followed by immunoblotting with a primary anti-myc (9E10, Santa Cruz) antibody and a secondary HRP-coupled antibody (goat anti-mouse IgG-HRP, Santa Cruz).

SKNO-1 cells [2] = assay: Xenotransplantation of pre-treated SKNO-1 cells in SCID mice; type: in vivo, mouse; details: cells treated in vitro with 25 μM for four days, injected subcutaneously, versus untreated cells
Method: The effect of the inhibition of NHR2 tetramerization was measured in a mouse model (xenotransplantation of SKNO-1 and K562 cells in SCID mice).
(§2) For the experiment, the SCID- or SCUD-gamma chain mouse model was used. The experiment investigates if the transplantation of the AML cell line SKNO-1 after treatment with either 7.44 or 7.38 leads to reduced tumor growth. […] For this, the cells were treated in vitro with 25 μM of the respective compound for four days. Furthermore, untreated SKNO-1 and CML cell lines were used. […] At day 5 the number of living cells was determined, and 5×10^5 SKNO-1 cells or 5×10^5 K562 cells were injected per transplant. Per mouse, untreated and treated cells were injected into the left and right flank, respectively.
For determining the tumor volume, the length and the width of the tumor was measured twice weekly, starting one week after the transplantation (FIGS. 5A and 5B). […] At the end of the experiment, the tumors were freed and weighed (FIGS. 5C and 5D).

RUNX1-NHR2 protein [3] = target: T2, RUNX1-NHR2 protein (Homo sapiens, UniProt Q01196+Q06455); assay: ELISA: tetramer-dependent binding of RUNX1-NHR2 protein to immobilized RUNX3 oligonucleotide; type: biochemical; details: for inhibition of tetramer-dependent binding of the RUNX1-NHR2 protein to immobilized RUNX3 oligonucleotide, ELISA: [P1]=500 μM and [PPIM]=2000 μM in ELISA; for IC50: inhibition of tetramerization of the RUNX1-NHR2 protein
T2 construct: the wild type NHR2 tetramerization domain or the homologous BCR tetramerization domain (highlighted) are optionally enclosed by an N-terminal RUNX1 domain; His6 (C); made in house; host or cells: E. coli BL21(DE3)
T2 sequence (Q01196+Q06455 fused): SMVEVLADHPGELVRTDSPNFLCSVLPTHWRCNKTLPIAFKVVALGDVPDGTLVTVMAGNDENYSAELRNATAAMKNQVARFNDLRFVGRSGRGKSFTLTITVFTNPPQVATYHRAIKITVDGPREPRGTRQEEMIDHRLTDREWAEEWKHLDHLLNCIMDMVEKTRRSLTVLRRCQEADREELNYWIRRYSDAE
Method: Preferably, for enzyme-linked immunosorbent assays (ELISA), wells of a 96 well plate were coated with 100 ng streptavidin (Dianova) in PBS over night at 4° C. […] Binding of RUNX1-containing proteins to the R3 oligonucleotide was detected with a primary anti-myc antibody (9E10, Santa Cruz) and a secondary HRP-coupled antibody (donkey anti-mouse IgG-HRP, Santa Cruz). ELISA was developed using the Sure Blue TMB Microwell Peroxidase substrate (KLP), and the reaction was stopped with sulfuric acid (1 N). Absorption at 450 nm and 650 nm was measured with the Spectra Max 340, Molecular Devices. Preferably, the ELISA assay is as further described in the experimental section.
The inhibition of NHR2 tetramerization was measured in vitro by tetramer-dependent binding of a RUNX1-NHR2 protein construct to an immobilized oligonucleotide derived from the RUNX3 promoter sequence in ELISA and ABCD assays. […] Furthermore, the influence of the inhibitors on the viability of RUNX1/ETO-dependent SKNO-1 cells was determined; as a control RUNX1/ETO-independent U937 cells were used.
The principle of the biochemical assays for measuring inhibition of NHR2 tetramerization is illustrated in FIG. 1. NHR2 tetramerization and its inhibition was measured in a purpose-built sandwich ELISA (enzyme-linked immunosorbent assay: FIG. 1A). • i) The RUNX1-NHR2 tetramer specifically binds to the biotinylated RUNX3-oligonucleotide (RUNX3-oligo^bio) that is immobilized on a streptavidine coated surface (SA). Disrupting the RUNX1-NHR2 tetramer into dimers leads to a release of the RUNX1-NHR2 protein from the surface. Antibody-conjugated horseradish peroxidase (HRP) binds to a primary anti-myc antibody (α-myc AB) that binds to the immobilized myc-labeled RUNX1-NHR2 tetramer. HRP catalyzes the conversion of 3,3′,5,5′-tetramethylbenzidine (TMB) to 3,3′,5,5-tetramethylbenzidine diimine.
Wells of a 96 well plate were coated with 100 ng streptavidin (Dianova) in PBS over night at 4° C. […] RUNX1-containing proteins were incubated with synthetic peptides or chemical compounds in binding buffer (25 mM HEPES, pH 7.5, 50 mM KCl, 1 mM EDTA, pH 8.0, 10 mM MgCl2, 5% glycerol, 1 mM DTT) in the presence of 1 μg salmon sperm and 1% IGEPAL CA-630 for 5 h and subsequently added to the streptavidin-bound R3 oligonucleotide for 15 min on the 96 well plate. Binding of RUNX1-containing proteins to the R3 oligonucleotide was detected with a primary anti-myc antibody (9E10, Santa Cruz) and a secondary HRP-coupled antibody (donkey anti-mouse IgG-HRP, Santa Cruz). ELISA was developed using the Sure Blue TMB Microwell Peroxidase substrate (KLP), and the reaction was stopped with sulfuric acid (1 N). Absorption at 450 nm and 650 nm was measured with the Spectra Max 340, Molecular Devices.

RUNX1-NHR2 protein [4] = target: T2, RUNX1-NHR2 protein; assay: ABCD (avidin, biotin, complex, DNA) assay with RUNX1-NHR2 protein; type: biochemical
Method: as §1

SKNO-1 cells [5] = assay: Cell survival assay (XTT), RUNX1/ETO-dependent SKNO-1 cells; type: cell-based; details: daily treated with 1 μM or 10 μM; XTT at days 3, 5, and 7
Method: Cell proliferation and viability were measured with the cell proliferation kit II (XTT, Roche Applied Science). The XTT assay was performed at days 3, 5, and 7. […] SKNO-1 cells were cultured in RPMI 1640+10% FCS and 7 ng ml^−1 human GM-CSF. […] Cell proliferation and viability were measured with the cell proliferation kit II (XTT, Roche Applied Science). 3000 cells per well were cultured in a 96 well plate and daily treated with compounds at different concentrations. The XTT assay was performed at days 3, 5, and 7.

SKNO-1 cells [6] = assay: FACS analysis of CD11b expression, SKNO-1 cells; type: cell-based; details: 25 μM for four days, at the day of injection
Method: as §2
At the day of injection, the expression of the surface marker CD11b, a measure for cell differentiation, was determined (FIG. 5E) as was the rate of apoptosis (FIG. 5F).

NHR2 protein = target: T3, NHR2 protein (Homo sapiens, UniProt Q06455); assay: BS3 cross-linking assay of NHR2 oligomers; type: biochemical; details: for inhibition of NHR2 tetramerization (reduction of BS3 cross-linked NHR2 oligomers): c=1100 μM
T3 construct: the wild type NHR2 tetramerization domain or the homologous BCR tetramerization domain (highlighted) are optionally enclosed by an N-terminal RUNX1 domain; His6 (C); made in house; host or cells: E. coli BL21(DE3)
T3 sequence (Q06455 334-400): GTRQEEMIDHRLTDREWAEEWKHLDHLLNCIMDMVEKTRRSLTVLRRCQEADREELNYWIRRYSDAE
Method: Preferably, for the cross-linking assay, purified NHR2 protein or NHR2-containing protein (5 μM) was incubated with the peptides at 4° C. for 1 h. The BS^3 (Bis[sulfosuccinimidyl] suberate) crosslink-reaction was performed at a final concentration of 1 mM for 30 min at RT. Tris-HCl (0.05 M, pH 7.4) was added to the reaction mix and incubated for 10 min to stop the reaction. […] was analyzed by western blotting. For protein detection, the membrane was incubated with a primary anti-myc antibody (9E10, Santa Cruz) and a secondary HRP-coupled antibody (goat anti-mouse IgG-HRP, Santa Cruz). Preferably, the cross-linking assay is as further described in the experimental section.
Purified NHR2 protein (5 μM) was incubated with the peptides at 4° C. for 1 h. The BS^3 (Bis[sulfosuccinimidyl] suberate) crosslink-reaction was performed at a final concentration of 1 mM for 30 min at RT. Tris-HCl (0.05 M, pH 7.4) was added to the reaction mix and incubated for 10 min to stop the reaction. Protein-oligomerization was analyzed by western blotting. For protein detection, the membrane was incubated with a primary anti-myc antibody (9E10, Santa Cruz) and a secondary HRP-coupled antibody (goat anti-mouse IgG-HRP, Santa Cruz).

RUNX1-BCR protein [7] = target: T1, RUNX1-BCR protein; assay: ELISA: tetramer-dependent binding of RUNX1-BCR protein to immobilized RUNX3 oligonucleotide (selectivity control); type: biochemical

Compound | inhibition at 1000 µM (RUNX1-BCR protein [1]; relative inhibition at 1 mM inhibitor concentration, RUNX1-BCR, read-out: ABCD Inhibition [%] BCR) [%] | tumor growth (tumor volume) of transplanted SKNO-1 cells (SKNO-1 cells [2]) | inhibition of tetramer-dependent binding of the RUNX1-NHR2 protein to immobilized RUNX3 oligonucleotide, ELISA (RUNX1-NHR2 protein [3]) | IC50 (RUNX1-NHR2 protein [3]) [µM] | inhibition at 2000 µM (RUNX1-NHR2 protein [3]; measured at 2 mM concentration, RUNX1-NHR2 protein, read-out: ELISA Inhibition [%] NHR2) [%] | inhibition at 1000 µM (RUNX1-NHR2 protein [4]; relative inhibition at 1 mM inhibitor concentration, RUNX1-NHR2 protein, read-out: ABCD Inhibition [%] NHR2) [%] | proliferation of SKNO-1 cells (XTT assay) (SKNO-1 cells [5]) | increase of the CD11b expression in SKNO-1 cells (SKNO-1 cells [6]) [%] | inhibition of NHR2 tetramerization (reduction of BS3 cross-linked NHR2 oligomers) (NHR2 protein) | inhibition of binding of the RUNX1-BCR protein, ABCD (RUNX1-BCR protein [1]; c=1100 μM in ABCD assay) | inhibition at 1000 µM (RUNX1-NHR2 protein [3]; relative inhibition at 1 mM inhibitor concentration, RUNX1-NHR2 protein, read-out: ELISA Inhibition [%] NHR2) [%] | inhibition of tetramer-dependent binding of the RUNX1-NHR2 protein to immobilized RUNX3 oligonucleotide, ABCD (RUNX1-NHR2 protein [4]; c=1100 μM in ABCD assay) | dose dependence of inhibition of NHR2 tetramerization (cross-linking) (NHR2 protein) | IC50 (NHR2 protein; read-out: IC50 of inhibition of NHR2 tetramerization (cross-linking)) [µM] | inhibition of binding of the RUNX1-BCR protein, ELISA (RUNX1-BCR protein [7]; [P1]=500 μM and [PPIM]=2000 μM in ELISA) | inhibition at 1000 µM (RUNX1-BCR protein [7]; relative inhibition at 1 mM inhibitor concentration, RUNX1-BCR, read-out: ELISA Inhibition [%] BCR) [%]
Cc1c(C(=O)O)[nH]c(/C=C/C(=O)O)nc1=O [Compound 7.38, (E)-2-(2-carboxyvinyl)-5-methyl-6-oxo-3,6-dihydropyrimidine-4-carboxylic acid, reference compound] | 26.1 | small reduction | not | > 2000 | 4 | 20.1 | did not affect | 2 | – | – | – | – | – | – | – | –
Ac-VARRCAEAAREALNYAIR-NH2 [P3, reference compound] | – | – | – | > 2000 | – | – | – | – | neither P2, P3 nor the unrelated peptide CP inhibit NHR2 tetramerization | – | – | – | – | – | – | –
Ac-VLRRCQEADREELNYWIR-NH2 [P1, reference compound] | – | – | selectively inhibit | 460 | – | – | – | – | inhibit NHR2 tetramerization | is not inhibited | 42.8 | selectively inhibit | dose-dependent | 250 | is not inhibited | 9.2
